What was measured:
[1] = Growth inhibition of human M07e cells; type: functional; details: Homo sapiens, M-07e
[2] = MRT (0 to t) in Sprague-Dawley rat at 10 mg/kg, po by LC-MS/MS method; type: ADME, organism-based; details: in vivo
[3] = system: Tyrosine-protein kinase ABL1 (Homo sapiens), P00519 [Q252H]; experiment: Inhibition of human non-phosphorylated ABL1 Q252H mutant (S229 to K512 residues) expressed in mammalian expression system assessed as residual activity at 1 uM by Kinomescan method relative to control
[4] = target: Atypical kinase COQ8A, mitochondrial (Homo sapiens) (UniProt Q8NI60); experiment: Inhibition of wild-type human […] ADCK3 (M280 to Q647 residues) expressed in bacterial expression system assessed as residual activity at 1 uM by Kinomescan method relative to control
Atypical kinase COQ8A, mitochondrial (Homo sapiens), sequence (Q8NI60 163-647 limits assumed): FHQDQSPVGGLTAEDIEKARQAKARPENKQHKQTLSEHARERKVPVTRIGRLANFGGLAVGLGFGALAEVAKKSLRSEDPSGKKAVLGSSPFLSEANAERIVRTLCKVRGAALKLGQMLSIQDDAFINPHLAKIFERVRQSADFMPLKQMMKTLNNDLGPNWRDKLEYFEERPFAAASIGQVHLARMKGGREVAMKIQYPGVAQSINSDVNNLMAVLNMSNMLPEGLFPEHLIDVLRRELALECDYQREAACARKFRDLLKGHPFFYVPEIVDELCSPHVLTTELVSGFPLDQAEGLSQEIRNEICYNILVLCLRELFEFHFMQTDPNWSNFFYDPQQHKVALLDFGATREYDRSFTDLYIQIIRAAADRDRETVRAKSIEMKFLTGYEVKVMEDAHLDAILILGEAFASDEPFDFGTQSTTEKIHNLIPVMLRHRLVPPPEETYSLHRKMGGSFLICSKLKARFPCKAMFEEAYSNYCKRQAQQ

[5] = system: ALK tyrosine kinase receptor (Homo sapiens), Q9UM73 [C1156Y]; experiment: Inhibition of […] human partial length ALK C1156Y mutant (I1088 to E1409 residues) expressed in mammalian expression system assessed as residual activity at 1 uM by Kinomescan method relative to control
[6] = target: Ankyrin repeat and protein kinase domain-containing protein 1 (Homo sapiens) (UniProt Q8NFD2); experiment: Inhibition of wild-type human partial length ANKK1 (M1 to A305 residues) expressed in mammalian expression system assessed as residual activity at 1 uM by Kinomescan method relative to control
[7] = target: Peripheral plasma membrane protein CASK (Homo sapiens) (UniProt O14936); experiment: Inhibition of wild-type human partial length CASK (M1 to H315 residues) expressed in mammalian expression system assessed as residual activity at 1 uM by Kinomescan method relative to control
[8] = target: Cyclin-dependent kinase 13 (Homo sapiens) (UniProt Q14004); experiment: Inhibition of wild-type human partial length CDC2L5 (H675 to S1054 residues) expressed in mammalian expression system assessed as residual activity at 1 uM by Kinomescan method relative to control
[9] = target: Cyclin-dependent kinase-like 1 (Homo sapiens) (UniProt Q00532); experiment: Inhibition of wild-type human full length CDKL1 (M1 to I358 residues) expressed in mammalian expression system assessed as residual activity at 1 uM by Kinomescan method relative to control
Cyclin-dependent kinase-like 1 (Homo sapiens), sequence (Q00532 whole entry, the tested form may be a part): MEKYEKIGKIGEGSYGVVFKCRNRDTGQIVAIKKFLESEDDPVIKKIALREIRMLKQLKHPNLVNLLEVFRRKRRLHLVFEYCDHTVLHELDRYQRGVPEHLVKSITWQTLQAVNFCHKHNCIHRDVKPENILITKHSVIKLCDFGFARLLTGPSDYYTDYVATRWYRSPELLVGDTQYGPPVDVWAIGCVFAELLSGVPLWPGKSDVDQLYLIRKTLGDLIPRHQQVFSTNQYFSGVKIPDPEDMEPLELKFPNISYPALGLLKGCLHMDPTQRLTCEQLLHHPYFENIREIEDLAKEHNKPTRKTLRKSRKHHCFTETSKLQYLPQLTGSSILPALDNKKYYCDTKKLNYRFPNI

[10] = target: Cyclin-dependent kinase-like 2 (Homo sapiens) (UniProt Q92772); experiment: Inhibition of wild-type human partial length CDKL2 (M1 to D327 residues) expressed in bacterial expression system assessed as residual activity at 1 uM by Kinomescan method relative to control
[11] = target: Serine/threonine-protein kinase Chk1 (Homo sapiens) (UniProt O14757); experiment: Inhibition of wild-type human partial length CHEK1 (M1 to G289 residues) expressed in bacterial expression system assessed as residual activity at 1 uM by Kinomescan method relative to control
[12] = target: Dual specificity protein kinase CLK2 (Homo sapiens) (UniProt P49760); experiment: Inhibition of wild-type human partial length CLK2 (D144 to R498 residues) expressed in bacterial expression system assessed as residual activity at 1 uM by Kinomescan method relative to control
[13] = system: Epidermal growth factor receptor (Homo sapiens), P00533 [UNDEFINED MUTATION]; experiment: Inhibition of human partial length EGFR L747-T751del/Sins mutant expressed in bacterial expression system assessed as residual activity at 1 uM by Kinomescan method relative to control
[14] = target: Mitogen-activated protein kinase 4 (Homo sapiens) (UniProt P31152); experiment: Inhibition of wild-type human partial length ERK4 (M1 to L365 residues) expressed in bacterial expression system assessed as residual activity at 1 uM by Kinomescan method relative to control
[15] = target: Tyrosine-protein kinase Fes/Fps (Homo sapiens) (UniProt P07332); experiment: Inhibition of wild-type human partial length FES (I527 to R822 residues) expressed in bacterial expression system assessed as residual activity at 1 uM by Kinomescan method relative to control
[16] = target: MAP/microtubule affinity-regulating kinase 4 (Homo sapiens) (UniProt Q96L34); experiment: Inhibition of wild-type human partial length MARK4 (K29 to G340 residues) expressed in bacterial expression system assessed as residual activity at 1 uM by Kinomescan method relative to control
[17] = system: Hepatocyte growth factor receptor (Homo sapiens), P08581 [Y1235D]; experiment: Inhibition of human partial length MET Y1235D mutant (D1010 to S1367 residues) expressed in bacterial expression system assessed as residual activity at 1 uM by Kinomescan method relative to control
[18] = target: Myosin light chain kinase, smooth muscle (Homo sapiens) (UniProt Q15746); experiment: Inhibition of wild-type human full length MYLK (M854 to E1845 residues) expressed in mammalian expression system assessed as residual activity at 1 uM by Kinomescan method relative to control
[19] = target: Phosphatidylinositol 4,5-bisphosphate 3-kinase catalytic subunit alpha isoform (Homo sapiens) (UniProt P42336); experiment: Inhibition of wild-type human partial length PIK3CA (R108 to N1068 residues) expressed in mammalian expression system assessed as residual activity at 1 uM by Kinomescan method relative to control
[20] = target: RAF proto-oncogene serine/threonine-protein kinase (Homo sapiens) (UniProt P04049); experiment: Inhibition of wild-type human partial length RAF1 (I330 to T640 residues) expressed in bacterial expression system assessed as residual activity at 1 uM by Kinomescan method relative to control
[21] = system: Proto-oncogene tyrosine-protein kinase receptor Ret (Homo sapiens), P07949 [V804M]; experiment: Inhibition of human partial length RET V804M mutant (E713 to D1014 residues) expressed in bacterial expression system assessed as residual activity at 1 uM by Kinomescan method relative to control
Proto-oncogene tyrosine-protein kinase receptor Ret (Homo sapiens), P07949 [V804M], sequence (P07949 whole entry V804M, the tested form may be a part): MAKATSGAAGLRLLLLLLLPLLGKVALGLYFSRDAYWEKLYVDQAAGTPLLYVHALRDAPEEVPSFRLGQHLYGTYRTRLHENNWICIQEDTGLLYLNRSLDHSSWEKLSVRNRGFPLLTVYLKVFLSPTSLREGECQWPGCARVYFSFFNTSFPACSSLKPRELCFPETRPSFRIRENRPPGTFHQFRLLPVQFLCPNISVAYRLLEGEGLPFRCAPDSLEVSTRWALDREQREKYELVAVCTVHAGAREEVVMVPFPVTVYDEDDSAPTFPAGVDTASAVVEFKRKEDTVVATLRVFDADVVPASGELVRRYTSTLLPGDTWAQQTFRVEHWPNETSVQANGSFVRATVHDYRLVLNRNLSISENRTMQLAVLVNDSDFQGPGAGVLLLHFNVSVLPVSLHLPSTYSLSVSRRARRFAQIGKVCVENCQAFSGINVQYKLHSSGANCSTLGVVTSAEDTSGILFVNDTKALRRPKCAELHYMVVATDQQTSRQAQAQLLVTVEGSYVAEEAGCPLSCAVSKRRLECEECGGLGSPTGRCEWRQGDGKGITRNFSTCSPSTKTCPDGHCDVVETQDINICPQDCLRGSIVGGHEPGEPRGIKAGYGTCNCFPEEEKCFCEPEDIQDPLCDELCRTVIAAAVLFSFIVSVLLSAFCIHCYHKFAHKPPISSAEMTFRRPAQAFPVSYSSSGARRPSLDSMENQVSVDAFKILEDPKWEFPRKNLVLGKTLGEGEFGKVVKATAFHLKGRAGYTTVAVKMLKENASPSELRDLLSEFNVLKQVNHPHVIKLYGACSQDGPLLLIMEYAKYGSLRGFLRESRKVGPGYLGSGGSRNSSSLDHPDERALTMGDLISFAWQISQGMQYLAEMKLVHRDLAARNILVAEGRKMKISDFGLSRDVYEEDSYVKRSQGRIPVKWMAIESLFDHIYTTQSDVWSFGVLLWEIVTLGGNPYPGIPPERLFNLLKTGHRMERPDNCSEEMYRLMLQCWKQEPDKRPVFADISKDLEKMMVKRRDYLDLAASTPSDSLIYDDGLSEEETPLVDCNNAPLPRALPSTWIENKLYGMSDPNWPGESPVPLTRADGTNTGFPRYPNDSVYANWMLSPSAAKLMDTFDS

[22] = target: Ribosomal protein S6 kinase alpha-4 (Homo sapiens) (UniProt O75676); experiment: Inhibition of wild-type human partial length C-terminal RPS6KA4 kinase domain 2 (M375 to T705 residues) expressed in mammalian expression system assessed as residual activity at 1 uM by Kinomescan method relative to control
Ribosomal protein S6 kinase alpha-4 (Homo sapiens), sequence (O75676 whole entry, looked up, the tested form may be a part): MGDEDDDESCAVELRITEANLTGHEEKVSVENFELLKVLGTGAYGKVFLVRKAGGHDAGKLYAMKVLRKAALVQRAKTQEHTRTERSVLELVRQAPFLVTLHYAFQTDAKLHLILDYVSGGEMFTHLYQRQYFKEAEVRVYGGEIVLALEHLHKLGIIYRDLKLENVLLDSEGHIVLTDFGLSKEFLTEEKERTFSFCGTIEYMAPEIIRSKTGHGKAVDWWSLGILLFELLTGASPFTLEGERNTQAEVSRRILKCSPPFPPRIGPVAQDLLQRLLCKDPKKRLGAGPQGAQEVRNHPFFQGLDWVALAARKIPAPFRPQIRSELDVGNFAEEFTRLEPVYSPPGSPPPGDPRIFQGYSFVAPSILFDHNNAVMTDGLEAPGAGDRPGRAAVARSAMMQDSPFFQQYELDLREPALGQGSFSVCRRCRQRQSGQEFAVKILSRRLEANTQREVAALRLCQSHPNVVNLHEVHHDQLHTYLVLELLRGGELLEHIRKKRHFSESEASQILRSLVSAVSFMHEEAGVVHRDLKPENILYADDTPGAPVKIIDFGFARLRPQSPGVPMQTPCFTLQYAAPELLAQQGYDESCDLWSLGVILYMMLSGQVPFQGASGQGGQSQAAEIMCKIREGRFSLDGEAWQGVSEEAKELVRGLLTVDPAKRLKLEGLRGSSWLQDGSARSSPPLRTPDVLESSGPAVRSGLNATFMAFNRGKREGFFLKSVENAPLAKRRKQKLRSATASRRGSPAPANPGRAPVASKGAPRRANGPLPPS

[23] = target: Serine/threonine-protein kinase 33 (Homo sapiens) (UniProt Q9BYT3); experiment: Inhibition of wild-type human full length STK33 (M1 to L514 residues) expressed in bacterial expression system assessed as residual activity at 1 uM by Kinomescan method relative to control
[24] = target: Mitogen-activated protein kinase kinase kinase 7 (Homo sapiens) (UniProt O43318); experiment: Inhibition of wild-type human partial length TAK1 (M1 to Q303 residues) expressed in mammalian expression system assessed as residual activity at 1 uM by Kinomescan method relative to control
[25] = target: BDNF/NT-3 growth factors receptor (Homo sapiens) (UniProt Q16620); experiment: Inhibition of wild-type human partial length TRKB (Q547 to G838 residues) expressed in mammalian expression system assessed as residual activity at 1 uM by Kinomescan method relative to control
[26] = target: Serine/threonine-protein kinase WNK1 (Homo sapiens) (UniProt Q9H4A3); experiment: Inhibition of wild-type human partial length WNK1 (Q194 to A490 residues) expressed in mammalian expression system assessed as residual activity at 1 uM by Kinomescan method relative to control
Serine/threonine-protein kinase WNK1 (Homo sapiens), sequence (Q9H4A3 whole entry, looked up, the tested form may be a part): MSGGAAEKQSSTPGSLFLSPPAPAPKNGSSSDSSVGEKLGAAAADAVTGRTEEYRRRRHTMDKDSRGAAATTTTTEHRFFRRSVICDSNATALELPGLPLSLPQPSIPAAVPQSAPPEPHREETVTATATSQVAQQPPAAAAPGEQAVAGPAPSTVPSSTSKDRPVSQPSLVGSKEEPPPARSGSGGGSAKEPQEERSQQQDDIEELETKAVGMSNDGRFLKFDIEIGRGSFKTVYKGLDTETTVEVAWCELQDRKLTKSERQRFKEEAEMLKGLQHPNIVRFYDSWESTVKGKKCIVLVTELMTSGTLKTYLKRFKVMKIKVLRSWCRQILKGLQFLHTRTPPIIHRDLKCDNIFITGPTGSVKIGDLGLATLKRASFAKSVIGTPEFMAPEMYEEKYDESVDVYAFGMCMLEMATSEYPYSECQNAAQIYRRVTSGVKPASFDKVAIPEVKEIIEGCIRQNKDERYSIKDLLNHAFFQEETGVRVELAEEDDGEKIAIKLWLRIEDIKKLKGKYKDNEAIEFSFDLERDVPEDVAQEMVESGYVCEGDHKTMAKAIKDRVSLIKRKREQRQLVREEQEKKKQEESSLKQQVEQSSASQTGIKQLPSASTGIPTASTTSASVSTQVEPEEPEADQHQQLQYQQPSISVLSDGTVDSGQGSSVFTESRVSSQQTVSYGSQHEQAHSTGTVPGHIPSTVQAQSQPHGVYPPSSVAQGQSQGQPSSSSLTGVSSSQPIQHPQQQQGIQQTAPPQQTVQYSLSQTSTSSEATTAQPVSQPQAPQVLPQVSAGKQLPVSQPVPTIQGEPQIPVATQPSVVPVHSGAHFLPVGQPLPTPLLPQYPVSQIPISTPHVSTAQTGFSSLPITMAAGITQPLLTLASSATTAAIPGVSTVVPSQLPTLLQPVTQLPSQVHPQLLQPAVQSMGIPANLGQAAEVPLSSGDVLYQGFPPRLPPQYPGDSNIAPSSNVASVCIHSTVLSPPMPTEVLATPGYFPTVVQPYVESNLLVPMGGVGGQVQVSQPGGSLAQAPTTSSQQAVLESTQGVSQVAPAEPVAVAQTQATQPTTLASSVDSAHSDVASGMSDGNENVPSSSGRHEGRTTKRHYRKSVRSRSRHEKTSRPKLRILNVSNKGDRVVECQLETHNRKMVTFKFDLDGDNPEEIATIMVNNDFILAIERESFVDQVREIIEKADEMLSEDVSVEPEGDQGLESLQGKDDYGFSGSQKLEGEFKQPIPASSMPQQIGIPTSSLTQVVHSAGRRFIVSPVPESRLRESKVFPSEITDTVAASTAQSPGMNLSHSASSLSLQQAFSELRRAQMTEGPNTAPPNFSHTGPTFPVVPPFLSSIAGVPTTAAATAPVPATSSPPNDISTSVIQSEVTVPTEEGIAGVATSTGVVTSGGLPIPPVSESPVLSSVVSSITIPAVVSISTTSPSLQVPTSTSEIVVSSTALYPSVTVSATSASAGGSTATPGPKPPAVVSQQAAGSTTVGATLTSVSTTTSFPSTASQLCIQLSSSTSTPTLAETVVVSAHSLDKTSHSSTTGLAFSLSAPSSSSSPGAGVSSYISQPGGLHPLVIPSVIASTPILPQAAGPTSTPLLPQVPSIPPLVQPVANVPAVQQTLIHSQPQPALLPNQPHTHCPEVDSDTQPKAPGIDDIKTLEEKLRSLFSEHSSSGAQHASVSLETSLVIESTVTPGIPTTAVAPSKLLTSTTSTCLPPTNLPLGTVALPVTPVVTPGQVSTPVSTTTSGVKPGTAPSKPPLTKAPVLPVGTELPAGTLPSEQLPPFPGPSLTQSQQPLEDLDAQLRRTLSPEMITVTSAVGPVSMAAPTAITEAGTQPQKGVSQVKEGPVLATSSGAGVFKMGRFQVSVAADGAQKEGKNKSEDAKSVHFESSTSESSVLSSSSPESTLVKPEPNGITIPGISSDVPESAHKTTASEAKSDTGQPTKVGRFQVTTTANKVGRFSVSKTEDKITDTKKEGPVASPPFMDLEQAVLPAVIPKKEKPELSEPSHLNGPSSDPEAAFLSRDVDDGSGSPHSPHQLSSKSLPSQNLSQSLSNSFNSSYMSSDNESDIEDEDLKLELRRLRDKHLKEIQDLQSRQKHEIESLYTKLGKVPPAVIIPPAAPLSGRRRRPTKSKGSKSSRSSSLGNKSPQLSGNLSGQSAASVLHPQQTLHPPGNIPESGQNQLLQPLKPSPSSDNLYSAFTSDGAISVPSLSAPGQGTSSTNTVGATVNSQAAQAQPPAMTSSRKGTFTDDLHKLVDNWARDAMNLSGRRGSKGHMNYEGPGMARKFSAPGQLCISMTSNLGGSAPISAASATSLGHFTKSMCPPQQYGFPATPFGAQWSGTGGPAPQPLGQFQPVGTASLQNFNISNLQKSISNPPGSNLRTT

Structure (SMILES): C=CC(=O)Nc1cc(Nc2cc(-c3cccc(NC(=O)c4ccc(C(C)(C)C)cc4)c3C)cn(C)c2=O)ccc1C(=O)N1CCOCC1
- GI50 [1]: 7.3 µM
- MRT last [2]: 1.36 h
- Activity [3]: 100%
- Activity [4]: 79%
- Activity [5]: 94%
- Activity [6]: 98%
- Activity [7]: 95%
- Activity [8]: 100%
- Activity [9]: 100%
- Activity [10]: 100%
- Activity [11]: 100%
- Activity [12]: 100%
- Activity [13]: 100%
- Activity [14]: 95%
- Activity [15]: 84%
- Activity [16]: 91%
- Activity [17]: 89%
- Activity [18]: 100%
- Activity [19]: 100%
- Activity [20]: 99%
- Activity [21]: 96%
- Activity [22]: 100%
- Activity [23]: 100%
- Activity [24]: 89%
- Activity [25]: 80%
- Activity [26]: 89%

— ChEMBL document CHEMBL4024706 (Eur J Med Chem, 2017)
